Measurements as given in patent publication US6399629B1, “Efflux pump inhibitors” (priority 1998, dated 2002).

System: Pseudomonas aeruginosa PAM1001
Assay: checkerboard assay (broth microdilution): levofloxacin MIC in presence of efflux pump inhibitor
Type: cell-based
Method in brief: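 Reduction of levofloxacin MIC by an efflux pump inhibitor measured against Pseudomonas aeruginosa PAM1001. Each microdilution well held a unique combination of levofloxacin and inhibitor (max 40 μg/mL) in MHB, inoculum 5×10^5 CFU/mL. Readout after 20 h, 35° C: OD650 plus visual inspection.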

Row | SMILES | Levofloxacin MIC Against P. aerugiuosa PAM1001 in Presence of Efflux Pump Inhibitor (EPI), Minimum Inhibitory Concentration (EPI Conc. 0 μg/mL) | Levofloxacin MIC Against P. aerugiuosa PAM1001 in Presence of Efflux Pump Inhibitor (EPI), Minimum Inhibitory Concentration (EPI Conc. 0.625 μg/mL) | Levofloxacin MIC Against P. aerugiuosa PAM1001 in Presence of Efflux Pump Inhibitor (EPI), Minimum Inhibitory Concentration (EPI Conc. 1.25 μg/mL) | Levofloxacin MIC Against P. aerugiuosa PAM1001 in Presence of Efflux Pump Inhibitor (EPI), Minimum Inhibitory Concentration (EPI Conc. 2.5 μg/mL) | Levofloxacin MIC Against P. aerugiuosa PAM1001 in Presence of Efflux Pump Inhibitor (EPI), Minimum Inhibitory Concentration (EPI Conc. 5 μg/ mL) | Levofloxacin MIC Against P. aerugiuosa PAM1001 in Presence of Efflux Pump Inhibitor (EPI), Minimum Inhibitory Concentration (EPI Conc. 10 μg/mL) | Levofloxacin MIC Against P. aerugiuosa PAM1001 in Presence of Efflux Pump Inhibitor (EPI), Minimum Inhibitory Concentration (EPI Conc. 20 μg/mL) | Levofloxacin MIC Against P. aerugiuosa PAM1001 in Presence of Efflux Pump Inhibitor (EPI), Minimum Inhibitory Concentration (EPI Conc. 40 μg/mL)
1 | Cc1cc2nc(C(O)[C@@H](CCc3ccccc3)NC(=O)[C@@H]3C[C@@H](NC(=O)[C@@H](C)N)CN3)oc2cc1C (mixture of isomers) [Compound M65, (2S,4R)-4-[(2R)-2-Aminopropionamido]-N-[(1R)-1-[(RS)-(5,6-dimethyl-2-benzoxaaolyl)hydroxymethyl]-3-phenylpropyl]-2-pyrrolidinecarboxamide] | 4 µg/mL | 4 µg/mL | 4 µg/mL | 4 µg/mL | 4 µg/mL | 4 µg/mL | 0.06 µg/mL | 0.015 µg/mL
2 | NC[C@@H]1CN[C@@H](C(=O)N[C@H](CCc2ccccc2)C(=O)Nc2cnc3ccc(F)cc3c2)C1 [Compound M35, (2R,4R)-4-(Aminomethyl)-N-[(1R)-3-pheyl-1-(6-fluoro-3-quinolylcarbamoyl)propyl]-2-pyrrolidinecarboxamide] | 4 µg/mL | 4 µg/mL | 4 µg/mL | 4 µg/mL | 2 µg/mL | 0.5 µg/mL | 0.03 µg/mL | 0.03 µg/mL
3 | CC(C)(C)c1ccc2nc(CNC(=O)[C@@H]3C[C@@H](NC(=O)CN)CN3)[nH]c2c1 [Compound M81] | 4 µg/mL | 4 µg/mL | 4 µg/mL | 4 µg/mL | 2 µg/mL | 1 µg/mL | 0.25 µg/mL | 0.03 µg/mL
4 | Cc1cc2nc(C(O)[C@@H](CCc3ccccc3)NC(=O)[C@@H]3C[C@@H](NC(=O)CN)CN3)oc2cc1C (some centres unmarked) [Compound M67] | 4 µg/mL | 4 µg/mL | 4 µg/mL | 4 µg/mL | 4 µg/mL | 0.5 µg/mL | 0.03 µg/mL | 
5 | Cc1cc2nc(C(O)[C@@H](CCc3ccccc3)NC(=O)[C@H]3C[C@H](NC(=O)[C@@H](C)N)CN3)oc2cc1C (mixture of isomers) [Compound M66, (2R,4S)-4-[(2R)-2-Aminopropionamido]-N-[(1R)-1-[(RS)-(5,6-dimethyl-2-benzoxaaolyl)hydroxymethyl]-3-phenylpropyl]-2-pyrrolidinecarboxamide] | 4 µg/mL | 4 µg/mL | 4 µg/mL | 4 µg/mL | 4 µg/mL | 0.125 µg/mL | 0.015 µg/mL | 0.015 µg/mL
6 | CC(C)C[C@H](COc1ccc2ccccc2c1)NC(=O)[C@H]1C[C@H](NC(=O)CN)CN1 [Compound M49, (2R,4S)-4-(2-Aminoacetamideo)-N-[(1R)-3-methyl-1-[(2-naphthyloxy)methyl]butyl]-2-pyrrolidinecarboxamide] | 4 µg/mL | 4 µg/mL | 4 µg/mL | 4 µg/mL | 4 µg/mL | 1 µg/mL | 0.125 µg/mL | 0.06 µg/mL
7 | NCC(=O)N[C@H]1CN[C@H](C(=O)N[C@H](CCc2ccccc2)c2nc3ccccc3o2)C1 [Compound M77, (2S,4R)-4-(2-Aminoacetamido)-N-[(1R)-1-(2-benzoxazolyl)-3-pheylpropyl]-2-pyrrolidinexarboxamide] | 4 µg/mL | 4 µg/mL | 4 µg/mL | 4 µg/mL | 4 µg/mL | 4 µg/mL | 2 µg/mL | 0.125 µg/mL
8 | NCC(=O)N[C@@H]1CN[C@@H](C(=O)N[C@H](CCc2ccccc2)C(=O)Nc2cnc3ccccc3c2)C1 [Compound M1, (2R,4S)-4-(2-Amionoacetamido)-N-[(1R-)-3-phenyl-1-(3-quinolylcarbamoyl)propyl]-2-pyrrolidinecarboxamide] | 4 µg/mL | 4 µg/mL | 4 µg/mL | 4 µg/mL | 2 µg/mL | 0.06 µg/mL | 0.015 µg/mL | 0.015 µg/mL
9 | CC(C)C[C@@H](NC(=O)[C@H]1C[C@H](CN)CN1)C(=O)Nc1cnc2ccccc2c1 [Compound M34, (2R,4R)-4-(Aminomethyl)-N-[(1R)-3-methyl-1-(3-quinolylcarbamoly)butyl]-2-pyrrolidinecarboxamide] | 4 µg/mL | 4 µg/mL | 4 µg/mL | 4 µg/mL | 4 µg/mL | 2 µg/mL | 1 µg/mL | 0.5 µg/mL
